Patent US10537650B2, “Molecular probes for multimodality imaging and tracking of stem cells” (University of Massachusetts, priority 2012, dated 2020)

How the values were obtained:
Type in all cases: in vivo, mouse
[1] = SPECT/CT, whole body count and optical imaging of ^111In-MTTI-157 labeled TC1 mES cells in NU/NU mice; conditions: for distribution of radioactivity (SPECT/CT): NU/NU mice
Experimental: All animal experiments were approved by the Institutional Animal Care and Use Committee of the university. Male NU/NU mice from Charles River Laboratories International, Inc. (Wilmington, Mass.), about 8 week-old, were used here, and fed a white chow (AIN-93G Purified Diet, Harlan, Madison, Wis.) and water, and housed under standard conditions. TC1 wild type mES cells were labeled with ^111In-MTTI-157 at the dye concentration of 20 μM with about 50 μCi/ml per labeling mix according to the method described before. Then about 4-5 μCi of ^111In-MTTI-157 labeled cells in 0.1 ml PBS (5×10^6 per mouse) was injected into NU/NU mice by tail vein or delivered subcutaneously on the left shoulder. The mice were followed by SPECT/CT imaging (NanoSPECT/CT, Bioscan, Inc., Washington, D.C.) with scans at 1 h and 19 h for injection subcutaneously, and at 30 min and 18 h for injection by tail vein.
The whole body radioactivity was measured through day 9 after injection by placing the mouse in a dose calibrator (Capintec).
(§1) The SPECT image parameters were 1.0 mm/pixel, 256×256 frame size and 60 sec per projection with 24 projections. Acquisition time was approximately 30 min. During imaging, the animal was anesthetized with 1-2% isoflurane in 1.5 liters/min oxygen. A CT scan was acquired prior to the SPECT scan and was performed at standard resolution, using a 45 kVp voltage and 500 milliseconds exposure time. The CT and SPECT reconstruction was performed using InVivoScope 1.43 software (Bioscan, Washington, D.C.).
Optical images (Pearl Imager, LiCor Biosciences, Lincoln, Nebr.) were acquired on day 0 and at intervals through day 28. After imaging, the lungs, liver, spleen and teratoma were removed, imaged and then imbedded in OCT in preparation for frozen section fluorescence microscopy. Slides were counter stained with the general membrane stain D275 (Invitrogen, Em: 484 nm, Ex: 501 nm). Slides were viewed in an Olympus IX 70 Inverted Light Microscope (Olympus America, Inc., NY) using filters for FITC (for D275) and Cy5 (for MTTI-157). […]

[2] = SPECT/CT, whole body count and optical imaging of ^111In-MTTI-157 labeled BL/6 mES cells in NU/NU mice
Experimental: BL/6 wild type mouse embryonic stem cells (mES) were labeled with ^111In-MTTI-157 at the concentration of 12 μM and about 250 μCi/ml according to the method described before. The labeled cells (5 in 0.1 ml PBS (5×10^6 per mouse) were injected into NU/NU mice by tail vein or subcutaneously on the left shoulder. SPECT/CT imaging was done at 30 min, 21 h and day 4 after injection subcutaneously, and at 1 h, 22 h and day 4 when injected by tail vein. Optical imaging was performed through day 11 for the subcutaneous delivery of cells. The whole body radioactivity was measured through day 7 by placing the animal in a dose calibrator.
The lungs, liver, and spleen were removed from the mouse injected by tail vein when sacrificed on day 19, and the teratoma was removed from mouse injected subcutaneously on the left shoulder when sacrificed on day 15. Excised organs and teratoma were imaged on the Li-Cor Biosciences Pearl Imager, and then set in OCT for frozen sections. The frozen sections were stained with the general membrane fluorescent stain D275 (Invitrogen, Em: 484 nm, Ex: 501 nm) and detected on an Olympus IX 70 Inverted Light Microscope (Olympus America, Inc., NY) using a FITC filter for D275 and a Cy5 filter for MTTI-157. D275 is a cell membrane stain and was used here to stain the field of view. The frozen sections were also stained with hematoxylin-eosin (H&E) for standard microscopy.

[3] = SPECT/CT, whole body activity and optical imaging of ^111In-MTTI-157 labeled LS174T cells in SKH-1 mice
Experimental: ^111In-MTTI-157 labeled LS174T cells were administered to mice to follow their fate and that of the labels they carried. All animal experiments were approved by the Institutional Animal Care and Use Committee of the university. Male SKH-1 mice about 8 week-old (Charles River Laboratories, Inc., Wilmington, Mass.) were housed under standard conditions and fed white chow (AIN-93G Purified Diet, Harlan, Madison, Wis.). LS174T cells were prepared labeled with ^111In-MTTI-157 as above, and about 5×10^6 cells with 10-12 μCi was injected by tail vein per mouse.
as §1, with “The mice were followed by SPECT/CT imaging (NanoSPECT/CT, Bioscan, Inc., Washington, D.C.) with scans at 30 min, 1 h, 24 h, 72 h, 120 h and 168 h following injection. The SPECT” for “The SPECT”, “in 1.5 L/min oxygen. A” for “in 1.5 liters/min oxygen. A”
Optical images (Pearl Imager, LiCor Biosciences, Lincoln, Nebr.) were acquired on day 0 and at intervals through day 28. To facilitate detection of signal at depth, such as in the lungs, some animals were killed, the chest and abdomen opened to expose internal organs, and then imaged. Untreated mice served as control. After imaging, the lungs, liver and spleen were removed, imaged and then imbedded in OCT in preparation for frozen section fluorescence microscopy. Slides were counter stained with the general membrane stain D275 (Invitrogen). Slides were viewed in an Olympus IX 70 Inverted Light Microscope (Olympus America, Inc., NY) using filters for FITC (for D275) and Cy5 (for MTTI-157).

CCCCCCCCCCCCCCCCCCCCCCN1C(=CC=CC=CC2=[N+](CCCCCCCCCCCCCCCCCCCCCC)c3ccc(CNC(=O)CN4CCN(CC(=O)[O-])CCN(CC(=O)[O-])CCN(CC(=O)[O-])CC4)cc3C2(C)C)C(C)(C)c2ccccc21.[111In+3].[I-] [^111In-MTTI-157]
distribution of radioactivity (SPECT/CT) ([1]; labeled TC1 mES cells injected by tail vein): accumulated in the lungs at 1 h after injection and then distributed to liver and spleen by 19 h | distribution of radioactivity (SPECT/CT) ([1]; labeled TC1 mES cells injected subcutaneously on the left shoulder): retained in the shoulder and did not distribution to other tissue through 18 h | whole body radioactivity corrected for decay ([1]; tail vein and subcutaneous injection of labeled TC1 mES cells, dose calibrator): retained in the body through day 9 | distribution of radioactivity (SPECT/CT) ([2]; labeled BL/6 mES cells by tail vein, NU/NU mice): accumulated in the lungs by 1 h following injection which then distributed to the liver and spleen by 22 h | distribution of radioactivity (SPECT/CT) ([2]; labeled BL/6 mES cells subcutaneously on left shoulder, through day 4): retained in the shoulder without distribution to other tissue | whole body radioactivity ([2]; labeled BL/6 mES cells, measured through day 7 in dose calibrator): unchanged from 2 h to 21 h after injection, but then decreases slightly at 91 h and remain at this level through 165 h | whole body ^111In retention (decay corrected) ([3]; SKH-1 mice, labeled LS174T cells by tail vein): retention out thru Day 14 | loss of whole body activity (half-life corrected) ([3]; from day 0 to day 10, dose calibrator, SKH-1 mice): about 23% | distribution of radioactivity (SPECT/CT) ([3]; labeled LS174T cells by tail vein, SKH-1 mice, earliest scan 30 min and 1 h, then within a day): restricted to the lungs and then seen to redistribute within a day to the liver and spleen | label stability in vivo ([3]; monitoring of cells out through 28 days in vivo): no evidence of label instability
